Patent US10646442B2, “Liposome composition and method for producing same” (FUJIFILM Corporation, priority 2014, dated 2020)
Where a name gives a salt, the structure may show the parent alone.

What was measured:
[1] = Retentivity in blood (free pemetrexed concentration in blood plasma); assay type: in vivo; conditions: mouse, intravenous, 6 mg/kg in terms of drug amount, tail vein injection, male C3H mice
Method: Further, the liposome composition of Example 10 at a dose of 6 mg/kg in terms of drug amount was administered via tail vein injection to 8-week old male C3H mice under the non-fasting conditions. Blood was collected at 15 minutes, 1 hour, 4 hours, and 24 hours after the administration was completed, and the free pemetrexed concentration in blood plasma was quantified to calculate a T1/2.

[2] = test system: Capan-1 (human pancreatic cancer cell line); assay: In vitro cancer cell growth inhibition; assay type: cell-based; conditions: Capan-1, cultured 144 hours, Luminescent Cell Viability Assay, read-out: IC50 (drug effect concentration that inhibits 50% of cancer cell growth)
Method: 2×10^3 cells/[…]/well of Capan-1 (human pancreatic cancer cell line) were seeded onto a 96-well plate. Subsequently, a free drug (gemcitabine hydrochloride) solution, and a drug encapsulated in the liposome compositions of Example 4 and Comparative Examples 4 and 5 were added at each concentration, and cultured until after 144 hours. The cell viability was calculated from the amount of luminescence obtained by a Luminescent Cell Viability Assay after the completion of the culture. In addition, a drug effect concentration (IC50) that inhibits 50% of cancer cell growth was determined.

[3] = reference value for free drug in mice; not among the administered groups; cited from earlier work

half-life [1] [h] | IC50 [2] [nM] | SMILES | T1/2 of free gemcitabine in mice [3] [h]
2 |  | Nc1nc2[nH]cc(CCc3ccc(C(=O)N[C@@H](CCC(=O)O)C(=O)O)cc3)c2c(=O)[nH]1 [drug aqueous solution, pemetrexed disodium heptahydrate] | 
 | 7 | Nc1ccn([C@@H]2O[C@H](CO)[C@@H](O)C2(F)F)c(=O)n1 [free drug, gemcitabine hydrochloride] | 0.7
